According to patent US20260201008A1, “SECRETIN-DERIVED GLP1R SELECTIVE AGONISTS” (GUBRA A/S, priority 2023, published 2026):
Like-named read-outs stand apart in the source and are kept apart here. Numbered stars: 1 amine (or outer) side, 2 acyl side, 3 side chain; on linkers, the order of the positions; unused ones are H or OH. Square brackets hold non-standard residues; d marks the D form. Side chains are listed from the residue outwards. Peptide text beside a SMILES is read from it. * marks the point of attachment. C20 diacid = O=C(O)CCCCCCCCCCCCCCCCCCC(=O)*; γGlu = O=C(O)[C@H](CCC(=O)[*:2])N[*:1]; AEEA = NCCOCCOCC(=O)O; Aib = CC(C)(N)C(=O)O

Columns and labels:
[1] = Turbidity of crude library peptides (absorbance at 600 nm); assay type: physicochemical; details: Physical stability of peptides
Procedure, shortened: (§1)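 Turbidity is the absorbance at 600 nm, taken before heating. Fibril signal is the mean ThT emission at 480 nm (450 nm excitation), read every 10 min over 72 h at 40° C with 700 rpm shaking between reads. Peptides at 267 μM, pH 4.0 acetate or pH 7.0 phosphate buffer (50 mM), 4 μM ThT final.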

[2] = Fibril formation of crude library peptides (Thioflavin T); assay type: physicochemical; parameters: key: average ThT fluorescence emission at 480 nm (ex 450 nm), raw units; details: Physical stability of peptides
Procedure, shortened: as §1

GLP1R = GLP1R (Homo sapiens, UniProt P43220); assay: hGLP1R potency, cAMP accumulation in CHO-K1 cells stably overexpressing hGLP1R; assay type: cell-based; parameters: host or cells: CHO-K1; details: for EC50: cAMP accumulation; for SCTR EC50/GLP1R EC50 ratio: cAMP accumulation in CHO-K1 cells; for Selectivity: SCTR EC50/GLP1R EC50 ratio
Procedure, shortened: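 EC50 derives from variable-slope nonlinear regression of cAMP HTRF signal, with purified peptides tested as 11 three-fold dilutions in duplicate. Assay: hGLP1R-overexpressing CHO-K1 cells, 0.5 mM IBMX, 0.05% casein in DPBS, 30 min room-temperature stimulation, GLP-1(7-36) as reference agonist.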

SCTR = SCTR (Homo sapiens, UniProt P47872); assay: hSCTR potency, cAMP accumulation in CHO-K1 cells stably overexpressing hSCTR; assay type: cell-based; parameters: alternatively Euroscreen ES-712-AF; FAST-0161L; host or cells: CHO-K1; details: cAMP accumulation
Procedure, shortened: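 EC50 derived from variable-slope nonlinear regression on 11-point, 3-fold series run in duplicate (crude peptides: 5 points, 10-fold, n=1). Compound stimulation lasted 30 min at room temperature in casein/IBMX-containing DPBS (0.05%, 0.5 mM), 2000 cells/well; cAMP detected by time-resolved FRET after one hour.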

[3] = CHO-K1 cells overexpressing hGLP1R, read-out: pEC50 hGLPR1 (converted)
[4] = CHO-K1 cells overexpressing hSCTR, read-out: pEC50 hSCTR (converted)
[5] = CHO-K1 cells overexpressing hGLP1R, read-out: hGLP1R pEC50 (converted)
[6] = selectivity for hGLP1R over hSCTR
[7] = CHO-K1 cells overexpressing hSCTR, read-out: hSCTR pEC50 (converted)

Sequence of SCTR (P47872 23-440): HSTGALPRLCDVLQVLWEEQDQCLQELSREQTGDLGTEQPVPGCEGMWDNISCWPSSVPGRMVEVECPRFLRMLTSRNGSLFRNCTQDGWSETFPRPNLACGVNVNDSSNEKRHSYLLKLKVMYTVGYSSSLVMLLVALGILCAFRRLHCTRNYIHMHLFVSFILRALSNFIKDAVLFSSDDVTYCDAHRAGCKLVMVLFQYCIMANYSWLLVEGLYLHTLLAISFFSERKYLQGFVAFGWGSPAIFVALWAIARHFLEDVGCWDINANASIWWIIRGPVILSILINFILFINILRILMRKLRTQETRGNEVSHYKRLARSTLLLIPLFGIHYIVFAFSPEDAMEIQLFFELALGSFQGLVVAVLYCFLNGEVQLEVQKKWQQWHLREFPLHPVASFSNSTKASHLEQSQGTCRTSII
Sequence of GLP1R (P43220 24-463): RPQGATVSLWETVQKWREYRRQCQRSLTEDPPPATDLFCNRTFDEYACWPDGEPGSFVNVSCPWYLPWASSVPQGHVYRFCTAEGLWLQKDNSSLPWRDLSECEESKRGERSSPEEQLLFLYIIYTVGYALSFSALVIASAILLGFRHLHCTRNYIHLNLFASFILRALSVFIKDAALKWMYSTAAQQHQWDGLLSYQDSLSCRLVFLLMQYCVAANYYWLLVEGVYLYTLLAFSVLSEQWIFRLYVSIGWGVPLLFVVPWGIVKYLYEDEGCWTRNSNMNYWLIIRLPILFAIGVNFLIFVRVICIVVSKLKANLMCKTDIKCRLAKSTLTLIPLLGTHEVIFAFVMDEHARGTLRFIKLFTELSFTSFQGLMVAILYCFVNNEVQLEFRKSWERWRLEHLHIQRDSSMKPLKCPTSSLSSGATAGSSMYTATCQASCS

Row | Turbidity (pH 7) [1] | Fibril formation [2] | EC50 (GLP1R; CHO-K1 cells stably overexpressing hGLP1R, read-out: hGLP1R potency (pEC50) (converted)) [nM] | SCTR EC50/GLP1R EC50 ratio (GLP1R; selectivity ratio, hSCTR vs hGLP1R) | EC50 (SCTR; CHO-K1 cells stably overexpressing hSCTR, read-out: hSCTR potency (pEC50) (converted)) [nM] | Selectivity (GLP1R) | EC50 (GLP1R; [3]) [nM] | EC50 (SCTR; [4]) [nM] | EC50 (GLP1R; [5]) [nM] | SCTR EC50/GLP1R EC50 ratio (GLP1R; [6]) | EC50 (SCTR; [7]) [nM] | SMILES
1 | 0.21 | 7498 | 0.0158 | 492 | 7.94 | – | – | – | – | – | – | CC[C@H](C)[C@H](NC(=O)[C@H](Cc1ccccc1)NC(=O)[C@H](CCCNC(=N)N)NC(=O)[C@H](CCC(N)=O)NC(=O)[C@H](CC(C)C)NC(=O)[C@H](C)NC(=O)[C@H](C)NC(=O)CNC(=O)[C@H](CCC(=O)O)NC(=O)[C@H](CC(C)C)NC(=O)[C@H](CC(C)C)NC(=O)C(C)(C)NC(=O)[C@H](CO)NC(=O)[C@H](Cc1ccc(O)cc1)NC(=O)[C@H](CC(=O)O)NC(=O)[C@H](CO)NC(=O)[C@@H](NC(=O)[C@H](Cc1ccccc1)NC(=O)[C@@H](NC(=O)CNC(=O)[C@H](CCC(=O)O)NC(=O)C(C)(C)NC(=O)[C@@H](N)Cc1c[nH]cn1)[C@@H](C)O)[C@@H](C)O)C(=O)N[C@@H](CCC(N)=O)C(=O)N[C@@H](Cc1c[nH]c2ccccc12)C(=O)N[C@@H](CC(C)C)C(=O)N[C@H](C(N)=O)C(C)C [compound 197] (H-H[Aib]EGTFTSDYS[Aib]LLEGAALQRFIQWLV-NH2)
2 | 0.09 | 9138 | – | – | – | 66252 | 0.0126 | 794 | – | – | – | CC(C)C[C@H](NC(=O)[C@H](Cc1ccccc1)NC(=O)[C@H](CCCNC(=N)N)NC(=O)[C@H](CCC(N)=O)NC(=O)[C@H](C)NC(=O)[C@H](C)NC(=O)[C@H](C)NC(=O)[C@H](CCC(=O)O)NC(=O)[C@H](CCC(=O)O)NC(=O)[C@H](CCCCNC(=O)COCCOCCNC(=O)COCCOCCNC(=O)CC[C@H](NC(=O)CCCCCCCCCCCCCCCCCCC(=O)O)C(=O)O)NC(=O)[C@H](CC(C)C)NC(=O)[C@H](Cc1ccc(O)cc1)NC(=O)[C@H](CO)NC(=O)[C@@H](NC(=O)[C@H](CC(=O)O)NC(=O)[C@H](CO)NC(=O)[C@@H](NC(=O)[C@H](Cc1ccccc1)NC(=O)[C@@H](NC(=O)CNC(=O)[C@H](CCC(=O)O)NC(=O)C(C)(C)NC(=O)[C@@H](N)Cc1c[nH]cn1)[C@@H](C)O)[C@@H](C)O)C(C)C)C(=O)N[C@@H](CCC(=O)O)C(=O)N[C@@H](Cc1c[nH]cn1)C(=O)N[C@@H](CC(C)C)C(=O)N[C@H](C(N)=O)C(C)C [compound 61] (H-H[Aib]EGTFTSDVSYLK([AEEA-AEEA-γGlu-C20 diacid])EEAAAQRFLEHLV-NH2)
3 | 0.40 | 253106 | – | – | – | – | – | – | 0.0501 | 2754 | 158 | CC[C@H](C)[C@H](NC(=O)[C@H](Cc1ccccc1)NC(=O)[C@H](CCCNC(=N)N)NC(=O)[C@H](CCC(N)=O)NC(=O)[C@H](CC(C)C)NC(=O)[C@H](C)NC(=O)[C@H](C)NC(=O)CNC(=O)[C@H](CCC(=O)O)NC(=O)[C@H](CC(C)C)NC(=O)[C@H](CC(C)C)NC(=O)CNC(=O)[C@H](CO)NC(=O)[C@@H](NC(=O)[C@H](CC(=O)O)NC(=O)[C@H](CO)NC(=O)[C@@H](NC(=O)[C@H](Cc1ccccc1)NC(=O)[C@@H](NC(=O)CNC(=O)[C@H](CCC(=O)O)NC(=O)C(C)(C)NC(=O)[C@@H](N)Cc1c[nH]cn1)[C@@H](C)O)[C@@H](C)O)C(C)C)C(=O)N[C@@H](CCC(N)=O)C(=O)N[C@@H](Cc1c[nH]c2ccccc12)C(=O)N[C@@H](CC(C)C)C(=O)N[C@H](C(N)=O)C(C)C [compound 182] (H-H[Aib]EGTFTSDVSGLLEGAALQRFIQWLV-NH2)
4 | 0.08 | 9457 | – | – | – | 133506 | 0.0251 | 3160 | – | – | – | CC(C)C[C@H](NC(=O)[C@H](Cc1ccccc1)NC(=O)[C@H](CCCNC(=N)N)NC(=O)[C@H](CCC(N)=O)NC(=O)[C@H](CO)NC(=O)[C@H](C)NC(=O)[C@H](C)NC(=O)[C@H](CCC(=O)O)NC(=O)[C@H](CCC(=O)O)NC(=O)[C@H](CCCCNC(=O)COCCOCCNC(=O)COCCOCCNC(=O)CC[C@H](NC(=O)CCCCCCCCCCCCCCCCCCC(=O)O)C(=O)O)NC(=O)[C@H](CC(C)C)NC(=O)[C@H](Cc1ccc(O)cc1)NC(=O)[C@H](CO)NC(=O)[C@@H](NC(=O)[C@H](CC(=O)O)NC(=O)[C@H](CO)NC(=O)[C@@H](NC(=O)[C@H](Cc1ccccc1)NC(=O)[C@@H](NC(=O)CNC(=O)[C@H](CCC(=O)O)NC(=O)C(C)(C)NC(=O)[C@@H](N)Cc1c[nH]cn1)[C@@H](C)O)[C@@H](C)O)C(C)C)C(=O)N[C@@H](CCC(=O)O)C(=O)N[C@@H](Cc1c[nH]cn1)C(=O)N[C@@H](CC(C)C)C(=O)N[C@H](C(N)=O)C(C)C [compound 75] (H-H[Aib]EGTFTSDVSYLK([AEEA-AEEA-γGlu-C20 diacid])EEAASQRFLEHLV-NH2)
5 | 0.09 | 10655 | – | – | – | – | – | – | 0.0251 | 48854 | 1260 | CC(C)C[C@H](NC(=O)[C@H](Cc1ccccc1)NC(=O)[C@H](CCCNC(=N)N)NC(=O)[C@H](CCC(N)=O)NC(=O)[C@H](C)NC(=O)[C@H](C)NC(=O)[C@H](C)NC(=O)[C@H](CCC(=O)O)NC(=O)[C@H](CCC(=O)O)NC(=O)[C@H](CCCCNC(=O)COCCOCCNC(=O)COCCOCCNC(=O)CC[C@H](NC(=O)CCCCCCCCCCCCCCCCCCC(=O)O)C(=O)O)NC(=O)[C@H](CC(C)C)NC(=O)[C@H](CCC(=O)O)NC(=O)[C@H](CO)NC(=O)[C@@H](NC(=O)[C@H](CC(=O)O)NC(=O)[C@H](CO)NC(=O)[C@@H](NC(=O)[C@H](Cc1ccccc1)NC(=O)[C@@H](NC(=O)CNC(=O)[C@H](CCC(=O)O)NC(=O)C(C)(C)NC(=O)[C@@H](N)Cc1c[nH]cn1)[C@@H](C)O)[C@@H](C)O)C(C)C)C(=O)N[C@@H](CCC(=O)O)C(=O)N[C@@H](Cc1c[nH]cn1)C(=O)N[C@@H](CC(C)C)C(=O)N[C@H](C(N)=O)C(C)C [compound 98] (H-H[Aib]EGTFTSDVSELK([AEEA-AEEA-γGlu-C20 diacid])EEAAAQRFLEHLV-NH2)
6 | 0.19 | 11084 | – | – | – | – | – | – | 7.94 | 464 | 3980 | CC[C@H](C)[C@H](NC(=O)[C@H](Cc1ccccc1)NC(=O)[C@H](CCCNC(=N)N)NC(=O)[C@H](CCC(N)=O)NC(=O)[C@H](CC(C)C)NC(=O)[C@H](C)NC(=O)[C@H](C)NC(=O)CNC(=O)[C@H](CCC(=O)O)NC(=O)[C@H](CC(C)C)NC(=O)[C@H](CC(C)C)NC(=O)[C@H](Cc1c[nH]c2ccccc12)NC(=O)[C@H](CO)NC(=O)[C@@H]1CCCN1C(=O)[C@H](CC(=O)O)NC(=O)[C@H](CO)NC(=O)[C@@H](NC(=O)[C@H](Cc1ccccc1)NC(=O)[C@@H](NC(=O)CNC(=O)[C@H](CCC(=O)O)NC(=O)C(C)(C)NC(=O)[C@@H](N)Cc1c[nH]cn1)[C@@H](C)O)[C@@H](C)O)C(=O)N[C@@H](CCC(N)=O)C(=O)N[C@@H](Cc1c[nH]c2ccccc12)C(=O)N[C@@H](CC(C)C)C(=O)N[C@H](C(N)=O)C(C)C [compound 127] (H-H[Aib]EGTFTSDPSWLLEGAALQRFIQWLV-NH2)
7 | 0.08 | 5164 | – | – | – | 10988 | 0.00501 | 63.1 | – | – | – | CC(C)C[C@H](NC(=O)[C@H](Cc1ccccc1)NC(=O)[C@H](CCCNC(=N)N)NC(=O)[C@H](CCC(N)=O)NC(=O)[C@@H](NC(=O)[C@H](C)NC(=O)[C@H](C)NC(=O)[C@H](CCC(=O)O)NC(=O)[C@H](CCC(=O)O)NC(=O)[C@H](CCCCNC(=O)COCCOCCNC(=O)COCCOCCNC(=O)CC[C@H](NC(=O)CCCCCCCCCCCCCCCCCCC(=O)O)C(=O)O)NC(=O)[C@H](CC(C)C)NC(=O)[C@@H](NC(=O)[C@H](CO)NC(=O)[C@@H](NC(=O)[C@H](CC(=O)O)NC(=O)[C@H](CO)NC(=O)[C@@H](NC(=O)[C@H](Cc1ccccc1)NC(=O)[C@@H](NC(=O)CNC(=O)[C@H](CCC(=O)O)NC(=O)C(C)(C)NC(=O)[C@@H](N)Cc1c[nH]cn1)[C@@H](C)O)[C@@H](C)O)C(C)C)C(C)C)[C@@H](C)O)C(=O)N[C@@H](CCC(=O)O)C(=O)N[C@@H](Cc1c[nH]cn1)C(=O)N[C@@H](CC(C)C)C(=O)N[C@H](C(N)=O)C(C)C [compound 53] (H-H[Aib]EGTFTSDVSVLK([AEEA-AEEA-γGlu-C20 diacid])EEAATQRFLEHLV-NH2)
